Experimental data taken from patent US20210263122A1, “RATIOMETRIC PULSED CEST IMAGING” (BRACCO IMAGING S.P.A., priority 2015, published 2021).

Assays:
[1] = Chemical exchange rate (kex) of amide protons from 1H-NMR linewidth; type: physicochemical
Protocol: High-resolution 1H-NMR spectra were recorded on a Bruker Avance 600 spectrometer (Bruker BioSpin Rheinstetten, Germany) operating at 14 T (corresponding to a proton Larmor frequency of 600.13 MHz) equipped with a Z-gradient 5 mm inverse probe. Sample temperature control was monitored within +/−0.1 K by means of the BTO2000 variable temperature unit. 1H NMR spectra to measure the linewidth of exchangeable protons were obtained by means of a pulse sequence using water suppression by excitation sculpting with gradients (T. L. Hwang, A. J. Shaka Water Suppression That Works. Excitation Sculpting Using Arbitrary Wave-Forms and Pulsed-Field Gradients, J. Magn. Reson. Ser. A, 1995, 112(3), 275-279). The carrier frequency was carefully set on resonance to the water signal. Simple “excite-detect” acquisitions (typical parameters: 16 ppm spectral window, 32 k complex data points, 3 s relaxation delay, and 64 averaged FIDs) were carried out to measure the linewidths of the exchangeable amide protons at 310 K. In vitro studies were performed by preparing 30 mM solutions of Iodixanol in aqueous phosphate buffer solution (10 mM), with the pH adjusted within the 5.5-7.4 range by addition of aliquots of HCl/NaOH. Capillaries containing the solutions were transferred into a 5 mm NMR tube filled with D2O for field-frequency lock.
Exchange rate values analogously assessed in the pH range of from 5.4 to 7.9 for some radiographic contrast agents according to the invention are provided in the following Table 3.

[2] = 7.05 T, 310 K, pH 7.4; cited from earlier work

| Structure (SMILES) | Kex ([1]; pH 5.5, 310K) | Kex ([1]; pH 6.0, 310K) | Kex ([1]; pH 6.3, 310K) | Kex ([1]; pH 6.7, 310K) | Kex ([1]; pH 7.0, 310K) | Kex ([1]; pH 7.4, 310K) | Kex ([1]; pH 7.9, 310K) | Kex ([1]; physiological conditions, Example 1) | averaged Kex exchange rate of amide mobile protons [2] |
| --- | --- | --- | --- | --- | --- | --- | --- | --- | --- |
| CC(=O)N(CC(O)CN(C(C)=O)c1c(I)c(C(=O)NCC(O)CO)c(I)c(C(=O)NCC(O)CO)c1I)c1c(I)c(C(=O)NCC(O)CO)c(I)c(C(=O)NCC(O)CO)c1I (stereo not drawn) [Iodixanol] | 32 s⁻¹ | 51 s⁻¹ | 80 s⁻¹ | 179 s⁻¹ | 476 s⁻¹ | 1213 s⁻¹ | 1332 s⁻¹ | exceeds 200 Hz |  |
| C[C@H](O)C(=O)Nc1c(I)c(C(=O)NC(CO)CO)c(I)c(C(=O)NC(CO)CO)c1I [Iopamidol] |  |  |  |  |  |  |  |  | about 2560 s^−1 |
| CC(=O)N(CC(O)CO)c1c(I)c(C(=O)NCC(O)CO)c(I)c(C(=O)NCC(O)CO)c1I (stereo not drawn) [Iohexol] | 22 s⁻¹ | 69 s⁻¹ | 139 s⁻¹ | 372 s⁻¹ | 923 s⁻¹ | 1609 s⁻¹ | 4056 s⁻¹ |  |  |
| O=C(NCC(O)CO)c1c(I)c(C(=O)NCC(O)CO)c(I)c(N(CCO)C(=O)CO)c1I (stereo not drawn) [Ioversol] | 22 s⁻¹ | 66 s⁻¹ | 118 s⁻¹ | 292 s⁻¹ | 913 s⁻¹ | 1628 s⁻¹ | 3660 s⁻¹ |  |  |
| CN(C(=O)CO)c1c(I)c(C(=O)NCC(O)CO)c(I)c(C(=O)NCC(O)CO)c1I (stereo not drawn) [Iomeprol] | 30 s⁻¹ | 88 s⁻¹ | 164 s⁻¹ | 430 s⁻¹ | 794 s⁻¹ | 1831 s⁻¹ | 4389 s⁻¹ |  |  |
